{"source": "ChEMBL document CHEMBL1151339", "about": "“Antitumor agents from bohemic acid complex, III. The isolation of marcellomycin, musettamycin, rudolphomycin, mimimycin, collinemycin, alcindoromycin, and bohemamine” (J Nat Prod, 1980)", "key": {"[1]": {"system": "Mus musculus", "assay": "Toxicity in BDF1 mouse xenografted with mouse L1210 cells assessed as survival at 6.4 mg/kg, ip after 5 days", "format": "organism-based", "parameters": "dose 6.4 mg/kg, route intraperitoneal", "details": "in vivo, 120 h"}, "[2]": {"system": "Mus musculus", "assay": "Toxicity in BDF1 mouse xenografted with mouse L1210 cells assessed as survival at 3.2 mg/kg, ip after 5 days", "format": "organism-based", "parameters": "dose 3.2 mg/kg, route intraperitoneal", "details": "in vivo, 120 h"}, "[3]": {"system": "Mus musculus", "assay": "Toxicity in BDF1 mouse xenografted with mouse L1210 cells assessed as survival at 1.6 mg/kg, ip after 5 days", "format": "organism-based", "parameters": "dose 1.6 mg/kg, route intraperitoneal", "details": "in vivo, 120 h"}, "[4]": {"system": "Mus musculus", "assay": "Toxicity in BDF1 mouse xenografted with mouse L1210 cells assessed as survival at 51.2 mg/kg, ip after 5 days", "format": "organism-based", "parameters": "dose 51.2 mg/kg, route intraperitoneal", "details": "in vivo, 120 h"}, "[5]": {"system": "Mus musculus", "assay": "Toxicity in BDF1 mouse xenografted with mouse L1210 cells assessed as survival at 25.6 mg/kg, ip after 5 days", "format": "organism-based", "parameters": "dose 25.6 mg/kg, route intraperitoneal", "details": "in vivo, 120 h"}, "[6]": {"system": "Pseudomonas aeruginosa", "assay": "Antibacterial activity against Pseudomonas aeruginosa A-9843A by 2-fold tube dilution method", "format": "functional"}, "[7]": {"system": "Enterococcus faecalis", "assay": "Antibacterial activity against Streptococcus faecalis A20688 by 2-fold tube dilution method", "format": "functional"}, "[8]": {"system": "Staphylococcus", "assay": "Antibacterial activity against penicillin resistant Staphylococcus A-9606 by 2-fold tube dilution method", "format": "functional"}, "[9]": {"system": "Streptococcus pneumoniae", "assay": "Antibacterial activity against Streptococcus pneumoniae A-9585 by 2-fold tube dilution method", "format": "functional"}, "[10]": {"system": "Streptococcus pyogenes", "assay": "Antibacterial activity against Streptococcus pyogenes A-9604 by 2-fold tube dilution method", "format": "functional"}, "[11]": {"system": "Staphylococcus aureus", "assay": "Antibacterial activity against Staphylococcus aureus A-9497 by 2-fold tube dilution method", "format": "functional"}, "[12]": {"system": "Escherichia coli", "assay": "Antibacterial activity against Escherichia coli A15119 by 2-fold tube dilution method", "format": "functional"}, "[13]": {"system": "Escherichia coli", "assay": "Antibacterial activity against Escherichia coli A20341-1 by 2-fold tube dilution method", "format": "functional"}, "[14]": {"system": "Klebsiella pneumoniae", "assay": "Antibacterial activity against Klebsiella pneumoniae A15130 by 2-fold tube dilution method", "format": "functional"}, "[15]": {"system": "Proteus mirabilis", "assay": "Antibacterial activity against Proteus mirabilis A-9900 by 2-fold tube dilution method", "format": "functional"}, "[16]": {"system": "Proteus vulgaris", "assay": "Antibacterial activity against Proteus vulgaris A21559 by 2-fold tube dilution method", "format": "functional"}, "[17]": {"system": "Serratia marcescens", "assay": "Antibacterial activity against Serratia marcescens A20019 by 2-fold tube dilution method", "format": "functional"}, "[18]": {"system": "Enterobacter cloacae", "assay": "Antibacterial activity against Enterobacter cloacae A-9659 by 2-fold tube dilution method", "format": "functional"}, "[19]": {"system": "Candida albicans", "assay": "Antifungal activity against Candida albicans A-9540 by 2-fold tube dilution method", "format": "functional"}, "[20]": {"system": "Candida albicans", "assay": "Antifungal activity against Candida albicans A15049 by 2-fold tube dilution method", "format": "functional"}, "[21]": {"system": "Candida albicans", "assay": "Antifungal activity against Candida albicans A15050 by 2-fold tube dilution method", "format": "functional"}, "[22]": {"system": "Candida tropicalis", "assay": "Antifungal activity against Candida tropicalis A15051 by 2-fold tube dilution method", "format": "functional"}, "[23]": {"system": "Pichia kudriavzevii", "assay": "Antifungal activity against Candida krusei A15052 by 2-fold tube dilution method", "format": "functional"}, "[24]": {"system": "Trichophyton mentagrophytes", "assay": "Antifungal activity against Trichophyton mentagrophytes A-9870 by 2-fold tube dilution method", "format": "functional"}, "[25]": {"system": "Microsporum canis", "assay": "Antifungal activity against Microsporum canis A-9872 by 2-fold tube dilution method", "format": "functional"}, "[26]": {"system": "L1210", "assay": "Antitumor activity against mouse L1210 cells xenografted in BDF1 mouse assessed as median survival time at 12.8 mg/kg, ip", "format": "functional", "details": "route intraperitoneal"}, "[27]": {"system": "L1210", "assay": "Antitumor activity against mouse L1210 cells xenografted in BDF1 mouse assessed as median survival time at 6.4 mg/kg, ip", "format": "functional", "details": "route intraperitoneal"}, "[28]": {"system": "L1210", "assay": "Antitumor activity against mouse L1210 cells xenografted in BDF1 mouse assessed as median survival time at 3.2 mg/kg, ip", "format": "functional", "details": "route intraperitoneal"}, "[29]": {"system": "L1210", "assay": "Antitumor activity against mouse L1210 cells xenografted in BDF1 mouse assessed as median survival time at 1.6 mg/kg, ip", "format": "functional", "details": "route intraperitoneal"}, "[30]": {"system": "L1210", "assay": "Antitumor activity against mouse L1210 cells xenografted in BDF1 mouse assessed as median survival time at 51.2 mg/kg, ip", "format": "functional", "details": "route intraperitoneal"}, "[31]": {"system": "L1210", "assay": "Antitumor activity against mouse L1210 cells xenografted in BDF1 mouse assessed as median survival time at 25.6 mg/kg, ip", "format": "functional", "details": "route intraperitoneal"}, "[32]": {"system": "L1210", "assay": "Antitumor activity against mouse L1210 cells xenografted in BDF1 mouse at 12.8 mg/kg, ip relative to control", "format": "functional", "details": "route intraperitoneal"}, "[33]": {"system": "L1210", "assay": "Antitumor activity against mouse L1210 cells xenografted in BDF1 mouse at 6.4 mg/kg, ip relative to control", "format": "functional", "details": "route intraperitoneal"}, "[34]": {"system": "L1210", "assay": "Antitumor activity against mouse L1210 cells xenografted in BDF1 mouse at 3.2 mg/kg, ip relative to control", "format": "functional", "details": "route intraperitoneal"}, "[35]": {"system": "L1210", "assay": "Antitumor activity against mouse L1210 cells xenografted in BDF1 mouse at 1.6 mg/kg, ip relative to control", "format": "functional", "details": "route intraperitoneal"}, "[36]": {"system": "L1210", "assay": "Antitumor activity against mouse L1210 cells xenografted in BDF1 mouse at 51.2 mg/kg, ip relative to control", "format": "functional", "details": "route intraperitoneal"}, "[37]": {"system": "L1210", "assay": "Antitumor activity against mouse L1210 cells xenografted in BDF1 mouse at 25.6 mg/kg, ip relative to control", "format": "functional", "details": "route intraperitoneal"}, "[38]": {"system": "L1210", "assay": "Antitumor activity against mouse L1210 cells xenografted in BDF1 mouse assessed as change in tumor average weight at 12.8 mg/kg, ip", "format": "functional", "details": "route intraperitoneal"}, "[39]": {"system": "L1210", "assay": "Antitumor activity against mouse L1210 cells xenografted in BDF1 mouse assessed as change in tumor average weight at 6.4 mg/kg, ip", "format": "functional", "details": "route intraperitoneal"}, "[40]": {"system": "L1210", "assay": "Antitumor activity against mouse L1210 cells xenografted in BDF1 mouse assessed as change in tumor average weight at 3.2 mg/kg, ip", "format": "functional", "details": "route intraperitoneal"}, "[41]": {"system": "L1210", "assay": "Antitumor activity against mouse L1210 cells xenografted in BDF1 mouse assessed as change in tumor average weight at 1.6 mg/kg, ip", "format": "functional", "details": "route intraperitoneal"}, "[42]": {"system": "L1210", "assay": "Antitumor activity against mouse L1210 cells xenografted in BDF1 mouse assessed as change in tumor average weight at 51.2 mg/kg, ip", "format": "functional", "details": "route intraperitoneal"}, "[43]": {"system": "L1210", "assay": "Antitumor activity against mouse L1210 cells xenografted in BDF1 mouse assessed as change in tumor average weight at 25.6 mg/kg, ip", "format": "functional", "details": "route intraperitoneal"}, "[44]": {"system": "Mus musculus", "assay": "Toxicity in BDF1 mouse xenografted with mouse L1210 cells assessed as survival at 12.8 mg/kg, ip after 5 days", "format": "organism-based", "parameters": "dose 12.8 mg/kg, route intraperitoneal", "details": "in vivo, 120 h"}}}
{"compound": "CC[C@@]1(O)C[C@H](O[C@H]2C[C@H](NC)[C@H](O[C@H]3C[C@H](O)[C@H](O[C@@H]4C[C@H](O)[C@H](O)[C@H](C)O4)[C@H](C)O3)[C@@H](C)O2)c2c(cc3c(c2O)C(=O)c2c(O)ccc(O)c2C3=O)[C@H]1C(=O)OC", "note": "[ALCINDOROMYCIN]", "values": [{"measurement": "Activity", "setting": "[1]", "result": "Non-toxic"}, {"measurement": "Activity", "setting": "[2]", "result": "Non-toxic"}, {"measurement": "Activity", "setting": "[3]", "result": "Non-toxic"}, {"measurement": "Activity", "setting": "[4]", "result": "Non-toxic"}, {"measurement": "Activity", "setting": "[5]", "result": "Non-toxic"}, {"measurement": "MIC", "setting": "[6]", "result": "> 125", "unit": "µg/mL"}, {"measurement": "MIC", "setting": "[7]", "result": 8, "unit": "µg/mL"}, {"measurement": "MIC", "setting": "[8]", "result": 63, "unit": "µg/mL"}, {"measurement": "MIC", "setting": "[9]", "result": 1, "unit": "µg/mL"}, {"measurement": "MIC", "setting": "[10]", "result": 2, "unit": "µg/mL"}, {"measurement": "MIC", "setting": "[11]", "result": 8, "unit": "µg/mL"}, {"measurement": "MIC", "setting": "[12]", "result": "> 125", "unit": "µg/mL"}, {"measurement": "MIC", "setting": "[13]", "result": "> 125", "unit": "µg/mL"}, {"measurement": "MIC", "setting": "[14]", "result": "> 125", "unit": "µg/mL"}, {"measurement": "MIC", "setting": "[15]", "result": "> 125", "unit": "µg/mL"}, {"measurement": "MIC", "setting": "[16]", "result": "> 125", "unit": "µg/mL"}, {"measurement": "MIC", "setting": "[17]", "result": "> 125", "unit": "µg/mL"}, {"measurement": "MIC", "setting": "[18]", "result": "> 125", "unit": "µg/mL"}, {"measurement": "MIC", "setting": "[19]", "result": "> 16", "unit": "µg/mL"}, {"measurement": "MIC", "setting": "[20]", "result": "> 16", "unit": "µg/mL"}, {"measurement": "MIC", "setting": "[21]", "result": "> 16", "unit": "µg/mL"}, {"measurement": "MIC", "setting": "[22]", "result": "> 16", "unit": "µg/mL"}, {"measurement": "MIC", "setting": "[23]", "result": "> 16", "unit": "µg/mL"}, {"measurement": "MIC", "setting": "[24]", "result": "> 16", "unit": "µg/mL"}, {"measurement": "MIC", "setting": "[25]", "result": "> 16", "unit": "µg/mL"}, {"measurement": "Activity", "setting": "[26]", "result": 9.5, "unit": "days"}, {"measurement": "Activity", "setting": "[27]", "result": 8, "unit": "days"}, {"measurement": "Activity", "setting": "[28]", "result": 8.5, "unit": "days"}, {"measurement": "Activity", "setting": "[29]", "result": 7, "unit": "days"}, {"measurement": "Activity", "setting": "[30]", "result": 11, "unit": "days"}, {"measurement": "Activity", "setting": "[31]", "result": 10, "unit": "days"}, {"measurement": "T/C", "setting": "[32]", "result": 128, "unit": "%"}, {"measurement": "T/C", "setting": "[33]", "result": 107, "unit": "%"}, {"measurement": "T/C", "setting": "[34]", "result": 113, "unit": "%"}, {"measurement": "T/C", "setting": "[35]", "result": 93, "unit": "%"}, {"measurement": "T/C", "setting": "[36]", "result": 147, "unit": "%"}, {"measurement": "T/C", "setting": "[37]", "result": 133, "unit": "%"}, {"measurement": "Activity", "setting": "[38]", "result": -0.8, "unit": "g"}, {"measurement": "Activity", "setting": "[39]", "result": 0.6, "unit": "g"}, {"measurement": "Activity", "setting": "[40]", "result": 0.5, "unit": "g"}, {"measurement": "Activity", "setting": "[41]", "result": 1.3, "unit": "g"}, {"measurement": "Activity", "setting": "[42]", "result": -2.7, "unit": "g"}, {"measurement": "Activity", "setting": "[43]", "result": -1.9, "unit": "g"}, {"measurement": "Activity", "setting": "[44]", "result": "Non-toxic"}]}
